# Laboratory results from patent US20250215039A1, “NUCLEOSIDES FOR TREATING CANCER” (PRIMEFOUR THERAPEUTICS, INC., priority 2022, published 2025).
# Read-outs that look alike come from different tables or passages of the source.
# System: cancer cell lines
# Assay: Cancer cell proliferation activity (CellTiterGlo, 72 h)
# Type: cell-based
# Conditions: 72 h, 72 h, read-out: IC50 cell proliferation
# Method in brief: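 Readout is CellTiterGlo luminescence after 72 h compound exposure (0.1% DMSO final), started one day post-seeding, at 37 °C.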
smiles,measurement,setting,value
"Nc1nc(F)nc2c1ncn2[C@@H]1O[C@H](CO)[C@@H](O)[C@@H]1O [compound 170, (2R,3S,4S,5R)-2-(6-amino-2-fluoro-9H-purin-9-yl)-5-(hydroxymethyl)tetrahydrofuran-3,4-diol]",IC50,5637 (bladder),2.4 µM
same,IC50,CLS439 (bladder),45.5 µM
same,IC50,HS729 (muscle),3.52 µM
same,IC50,J82 (bladder),19.4 µM
same,IC50,JAR (placenta),45.9 µM
same,IC50,MT3 (breast),2 µM
same,IC50,PANCI (pancreas),16.6 µM
same,IC50,PC3 (prostate),2.54 µM
same,IC50,RD (muscle),11.9 µM
same,IC50,T24 (bladder),5.89 µM
same,IC50,"Homo sapiens, 22Rv1, 72 h, 22RV1 (prostate)",79.5 µM
same,IC50,"Homo sapiens, 786-0, 72 h, 786O (kidney)",29.6 µM
same,IC50,"Homo sapiens, A204, 72 h, A204 (muscle)",0.53 µM
same,IC50,"Homo sapiens, A549, 72 h, A549 (lung)",8.86 µM
same,IC50,"Homo sapiens, A673, 72 h, A673 (bone)",10.8 µM
same,IC50,"Homo sapiens, A2780, 72 h, A2780 (ovary)",7.16 µM
same,IC50,"Homo sapiens, A-375, 72 h, A375 (skin)",9.75 µM
same,IC50,"Homo sapiens, A-431, 72 h, A431 (skin)",11.1 µM
same,IC50,"Homo sapiens, ACHN, ACHN (kidney)",12.7 µM
same,IC50,"Homo sapiens, ASPC1, 72 h, ASPC1 (pancreas)",7.85 µM
same,IC50,"Homo sapiens, BT-20, 72 h, BT20 (breast)",38.2 µM
same,IC50,"Homo sapiens, BXPC-3, 72 h, BXPC3 (pancreas)",6.87 µM
same,IC50,"Homo sapiens, C-33-A, C33A (endometrial)",9.56 µM
same,IC50,"Homo sapiens, CAKI-1, 72 h, CAKI1 (kidney)",2.46 µM
same,IC50,"Homo sapiens, COLO 205, 72 h, COLO205 (colon)",2.8 µM
same,IC50,"Homo sapiens, COLO-678, 72 h, COLO678 (colon)",21.8 µM
same,IC50,"Homo sapiens, Ca-Ski, CASKI (endometrial)",107 µM
same,IC50,"Homo sapiens, Caco-2, 72 h, CACO2 (colon)",49.2 µM
same,IC50,"Homo sapiens, Calu-6, 72 h, CALU6 (lung)",17.3 µM
same,IC50,"Homo sapiens, DLD-1, 72 h, DLD1 (colon)",11.4 µM
same,IC50,"Homo sapiens, DU-145, 72 h, DU145 (prostate)",5.44 µM
same,IC50,"Homo sapiens, EFO-21, 72 h, EFO21 (ovary)",7.34 µM
same,IC50,"Homo sapiens, EJ-28, 72 h, EJ28 (bladder)",10.4 µM
same,IC50,"Homo sapiens, Granta-519, 72 h, GRANTA-519 (hematological)",1.66 µM
same,IC50,"Homo sapiens, HCT-15, 72 h, HCT15 (colon)",12.4 µM
same,IC50,"Homo sapiens, HCT-116, 72 h, HCT116 (colon)",5.26 µM
same,IC50,"Homo sapiens, HEK293, 72 h, HEK293 (kidney)",35.2 µM
same,IC50,"Homo sapiens, HL-60, 72 h, HL-60 (hematological)",2.05 µM
same,IC50,"Homo sapiens, HT-29, 72 h, HT29 (colon)",18.4 µM
same,IC50,"Homo sapiens, HT-1080, 72 h, HT1080 (connective tissue)",4.09 µM
same,IC50,"Homo sapiens, HeLa, HELA (endometrial)",6.72 µM
same,IC50,"Homo sapiens, HepG2, 72 h, HEPG2 (liver)",15.3 µM
same,IC50,"Homo sapiens, Hs-578T, HS578T (breast)",36.6 µM
same,IC50,"Homo sapiens, IGROV-1, 72 h, IGROV1 (ovary)",13.6 µM
same,IC50,"Homo sapiens, IMR-90, 72 h, IMR90 (lung)",11.8 µM
same,IC50,"Homo sapiens, JEG-3, 72 h, JEG3 (placenta)",56.8 µM
same,IC50,"Homo sapiens, JIMT-1, 72 h, JIMT1 (breast)",1.66 µM
same,IC50,"Homo sapiens, K562, 72 h, K-562 (hematological)",41.8 µM
same,IC50,"Homo sapiens, Kasumi 1, 72 h, KASUMI-1 (hematological)",0.55 µM
same,IC50,"Homo sapiens, L-363, 72 h, L-363 (hematological)",33 µM
same,IC50,"Homo sapiens, LoVo, LOVO (colon)",9.73 µM
same,IC50,"Homo sapiens, MCF7, 72 h, MCF7 (breast)",27.2 µM
same,IC50,"Homo sapiens, MDA-MB-231, 72 h, MDAMB231 (breast)",2.88 µM
same,IC50,"Homo sapiens, MDA-MB-435, 72 h, MDAMB435 (skin)",14.2 µM
same,IC50,"Homo sapiens, MDA-MB-436, 72 h, MDAMB436 (breast)",3.35 µM
same,IC50,"Homo sapiens, MDA-MB-468, 72 h, MDAMB468 (breast)",23.6 µM
same,IC50,"Homo sapiens, MG-63, 72 h, MG63 (bone)",15.5 µM
same,IC50,"Homo sapiens, MHH-ES-1, 72 h, MHHES1 (bone)",5.05 µM
same,IC50,"Homo sapiens, MIA PaCa-2, 72 h, MIAPACA2 (pancreas)",35.4 µM
same,IC50,"Homo sapiens, MINO, MINO (hematological)",0.61 µM
same,IC50,"Homo sapiens, MV4-11, 72 h, MV4-11 (hematological)",5.77 µM
same,IC50,"Homo sapiens, NCI-H23, 72 h, NCI-H23 (lung)",8.19 µM
same,IC50,"Homo sapiens, NCI-H82, 72 h, NCIH82 (lung)",21.3 µM
same,IC50,"Homo sapiens, NCI-H292, 72 h, NCIH292 (lung)",8.01 µM
same,IC50,"Homo sapiens, NCI-H460, 72 h, NCIH460 (lung)",32.5 µM
same,IC50,"Homo sapiens, OVCAR-3, 72 h, OVCAR3 (ovary)",1.13 µM
same,IC50,"Homo sapiens, OVCAR-4, 72 h, OVCAR4 (ovary)",16.3 µM
same,IC50,"Homo sapiens, PLC-PRF-5, 72 h, PLCPRF5 (liver)",20.1 µM
same,IC50,"Homo sapiens, Panc1005, 72 h, PANC1005 (pancreas)",5.7 µM
same,IC50,"Homo sapiens, Ramos, RAMOS (hematological)",5.1 µM
same,IC50,"Homo sapiens, SAOS-2, 72 h, SAOS2 (bone)",0.45 µM
same,IC50,"Homo sapiens, SF-268, 72 h, SF268 (brain)",16.3 µM
same,IC50,"Homo sapiens, SF-295, 72 h, SF295 (brain)",86.5 µM
same,IC50,"Homo sapiens, SK-BR-3, 72 h, SKBR3 (breast)",1.58 µM
same,IC50,"Homo sapiens, SK-HEP1, 72 h, SKHEP1 (liver)",5.36 µM
same,IC50,"Homo sapiens, SK-LMS-1, 72 h, SKLMS1 (uterus)",44.3 µM
same,IC50,"Homo sapiens, SK-MEL-5, 72 h, SKMEL5 (skin; SKMELS [sic] in Table 9E)",15.9 µM
same,IC50,"Homo sapiens, SK-MEL-28, 72 h, SKMEL28 (skin)",11.1 µM
same,IC50,"Homo sapiens, SK-N-AS, SKNAS (brain)",29.5 µM
same,IC50,"Homo sapiens, SK-N-SH, SKNSH (brain)",22.2 µM
same,IC50,"Homo sapiens, SK-OV-3, 72 h, SKOV3 (ovary)",4.22 µM
same,IC50,"Homo sapiens, SNB-75, 72 h, SNB75 (brain)",50.6 µM
same,IC50,"Homo sapiens, SU-DHL10, 72 h, SU-DHL-10 (hematological)",5.61 µM
same,IC50,"Homo sapiens, SU-DHL-6, 72 h, SU-DHL-6 (hematological)",38.6 µM
same,IC50,"Homo sapiens, SW-620, 72 h, SW620 (colon)",17.4 µM
same,IC50,"Homo sapiens, TE-671, 72 h, TE671 (muscle)",11.1 µM
same,IC50,"Homo sapiens, THP-1, 72 h, THP-1 (hematological)",5.86 µM
same,IC50,"Homo sapiens, U2OS, U20S (bone; U2OS in Table 9E)",13.8 µM
same,IC50,"Homo sapiens, U-87 MG, U87MG (brain)",5.59 µM
same,IC50,"Homo sapiens, UMUC3, 72 h, UMUC3 (bladder)",21.6 µM
same,IC50,"Homo sapiens, UO-31, 72 h, UO31 (kidney)",7.43 µM
same,IC50,"Homo sapiens, WSU-NHL, WSU-NHL (hematological)",1.91 µM
same,IC50,"NCI-H358M, NCIH358M (lung)",0.29 µM
same,IC50,"PBMC, PBMC (hematological)",0.29 µM
same,IC50,"RD-ES, RDES (bone)",35.3 µM
